This is an account of results in patent EP4650353A1 (Shanghai Institute of Materia Medica, Chinese Academy of …, priority 2023, dated 2024).

One experiment has as its target T1, human GLP-1 receptor (Homo sapiens, UniProt P43220).
T1 construct: HA (N); expressed in transfected cells
Put plainly: GLP-1 receptor-mediated agonist activity: cAMP level in hGLP-1R/HEK293 cell line (HTRF). Type of experiment: cell-based. The note with it: cAMP levels in hGLP-1R/HEK293 cell line; Table 1; read-out: determined EC50. A general note: cAMP levels reflect the balance of adenylyl cyclase and phosphodiesterase activity.

The test system of a further experiment is hGLP-1R KI mice. Put plainly: Diet inhibition by Tris salts (food intake after single oral dose). Type of experiment: in vivo. The note with it: 30 mg/kg. On the procedure: Mouse model: hGLP-1R KI mice, 8 female mice per experimental group.
Experimental procedure: Mice were separated into cages and fasted 6 hours in advance, and were given drugs by oral gavage at the beginning of the night cycle (7:00 PM). The weight of food in each cage was weighed at 0, 2.5, 5, 12 (7:00 AM at the beginning of the day cycle), and 24 hours after drug administration to calculate the food intake of mice.

In another experiment the test system is β-arrestin 1. Put plainly: NanoBiT recruitment of β-arrestin 1 by GLP-1R in HEK293 cells.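 Further: 100% equals the maximal response of endogenous GLP-1.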 Type of experiment: cell-based. The note with it: Homo sapiens, read-out: maximum agonistic effect (Emax) recruiting β-arrestin 1. An excerpt:
(§1) The Promega NanoBiT protein-protein reaction system was used to detect the recruitment of β-arrestin 1 and β-arrestin 2 by GLP-1R. The NanoBit Protein-Protein Reaction System was a dual-subunit system based on NanoLuc luciferase that could be used to detect protein-protein interactions in cells. The LgBiT (17.6 kDa) and SmBiT (11 amino acids) subunits were fused to the proteins of interest, respectively. When the proteins of interest interact, the two subunits came into close proximity to form an enzyme with catalytic activity, which could catalyze the luminescence of the luciferase substrate. Firstly, the human GLP-1R gene was connected to the N-terminus of LgBit, the β-arrestin 1/2 gene was cloned to the C-terminus of SmBit, and the fusion protein was introduced into the pcDNA3.0 vector to construct plasmids expressing hGLP-1R-LgBit and SmBit-β-arrestin 1/2 fusion proteins. The hGLP-1R-LgBit plasmid and SmBit-β-arrestin 1 (or SmBit-β-arrestin 2) plasmid were co-transfected into HEK293 cells at a ratio of 1 µg plasmid/2×10^6 cells. Immediately after transfection, the cells were added to a 96-well white-bottom plate at a density of 4×10^5 cells/well, and the cells were cultured in an incubator (37°C, 5% CO2) for 20 hours.
(§2) After 20 hours, the liquid in the wells was discarded, 40 µL of fresh culture medium (DMEM+0.2% BSA, m/v) was added first, and then 10 µL of Nano-Glo Live Cell detection solution (Promega, #N2011) was added, and then the cells were placed in an incubator and incubated for 10 minutes. The compound was dissolved in DMSO and prepared into a storage solution with a concentration of 10mM. The experiment started with a concentration of 100µM. […] After the cells were incubated for 10 min, 25 µL of culture medium containing the compound was added to each well and incubated at room temperature for 5 min. The fluorescence signal was then detected using an Envision 2104 multi-function microplate reader (PerkinElmer). All samples were tested in triplicate, and the fluorescence signal ratio and the corresponding compound concentration were analyzed using GraphPad Prism 8 software.

The subject of a further experiment is β-arrestin 2. Put plainly: NanoBiT recruitment of β-arrestin 2 by GLP-1R in HEK293 cells.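 Further: 100% equals the maximal response of endogenous GLP-1.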 The note with it: Homo sapiens, read-out: maximum agonistic effect (Emax) recruiting β-arrestin 2. Format: cell-based.
Excerpt: as §1, §2

The target in another experiment is hERG potassium channels (Homo sapiens, UniProt Q12809). The experiment in a line: cell-based. On the procedure: CHO cells expressing hERG protein were cultured in 175 cm^2 culture flasks. When the cell density grew to 60-80%, the culture medium was removed, the cells were washed once with 7 mL PBS, and then 3 mL Detachin was added for digestion. After digestion was complete, 7 mL of culture medium was added to neutralize, then centrifuged. The supernatant was aspirated, and 5 mL of culture medium was added to resuspend to ensure that the cell density is 2-5×10^6/mL.
Both the single-cell high-impedance sealing and whole-cell mode formation processes were automatically completed by the Qpatch instrument. After obtaining the whole-cell recording mode, the cell was clamped at -80 mV. Before a 5-second +20 mV depolarizing stimulus was given, a 50-ms -50 mV pre-voltage was given, and then the cell was repolarized to -50 mV for 5 seconds and then returned to -80 mV. This voltage stimulation was applied every 15 seconds. After recording for 2 minutes, the extracellular solution was recorded for 2 minutes. Then the drug administration process began. The compound concentration started from the lowest tested concentration. Each tested concentration was given for 2 minutes. […] At least three cells were tested for each concentration (n≥3).
The compound stock solution was diluted with extracellular fluid, 5 µL of 20 mM compound stock solution was added to 2495 µL extracellular fluid, diluted 500 times to 40 µM, and then serially diluted 3 times in extracellular fluid containing 0.2% DMSO (v/v) to obtain the final concentration to be tested.
The experimental data were analyzed by XLFit software.

Experiment [1] has as its system hGLP-1 receptor knock-in mice. The experiment in a line: Oral glucose tolerance test in mice. Type of experiment: in vivo. On the procedure: (§3) Genetically engineered hGLP-1R gene knock-in mice, male, 8-10 weeks old, specific pathogen free (SPF) grade, were purchased from Biocytogen Jiangsu Gene Biotechnology Co., Ltd. All experimental animals were housed in the SPF-level environment of the National Compound Sample Library animal room, with a temperature of 24±2°C, a relative humidity of 40-60%RH, an air cleanliness level of 7, and a day and night light-dark cycle of 12h/12h; they were continuously supplied with cobalt-60 radiation-sterilized complete mouse granular feed (Shanghai Shilin Biotechnology Co., Ltd., maintenance feed for rats and mice), and were allowed to drink tap water (sterilized with high-pressure steam) without interruption, and were allowed to drink it freely. The cages were transparent polyetherimide cages (Suzhou Fengshi Experimental Animal Equipment Co., Ltd., CP-8 mouse cages), and the bedding was corn cobs (Tezhou Gumei Agricultural Technology Co., Ltd., used after high-pressure steam sterilization). There were 3-5 animals in each cage, and the cage card indicated the IACUC approval number, experiment number, experiment start time, person in charge, experimenter, animal source, group and animal number. The purchased mice were adapted to this breeding environment for at least 7 days before being used in experiments. The animal use methods in this study were approved by the IACUC Committee of the Shanghai Institute of Materia Medica.
60 minutes after oral administration, blood glucose was measured again as zero-point blood glucose. Then, 2 g/kg of sugar was orally administered, and blood glucose was measured using a blood glucose meter 15 minutes, 30 minutes, 60 minutes, and 90 minutes after sugar administration. In order to explore the effect of long-term administration on glucose tolerance, 2 g/kg of sugar was orally administered again […] the administration of the compound, and the blood glucose changes were measured at 180 min, 195 min, 210 min, 240 min, and 270 min.

The test system of experiment [2] is hGLP-1 receptor knock-in mice. Put plainly: Long-term administration in high-fat diet fed hGLP-1R mice for weight loss. Type of experiment: in vivo. The conditions noted are these: ammonium salt. On the procedure:
as §3
The mice were weighed every day, and 24 hours after the last administration, the body fat and muscle content of the mice were detected using a Bruker desktop nuclear magnetic resonance spectrometer (model LF90II). • (4) Experimental results

Where [3] appears, read: Tris salt, single oral administration.

In general, EC50 refers to the concentration giving half of the maximal effect. Broadly, the Emax is the greatest response seen or fitted, relative to the assay's reference. As usually defined, the IC50 is the concentration that inhibits the measured activity by half. A higher IC50 goes with weaker potency in that assay.

Where only a bound is given, the exact number is not on record here.

T1 sequence (P43220 24-463): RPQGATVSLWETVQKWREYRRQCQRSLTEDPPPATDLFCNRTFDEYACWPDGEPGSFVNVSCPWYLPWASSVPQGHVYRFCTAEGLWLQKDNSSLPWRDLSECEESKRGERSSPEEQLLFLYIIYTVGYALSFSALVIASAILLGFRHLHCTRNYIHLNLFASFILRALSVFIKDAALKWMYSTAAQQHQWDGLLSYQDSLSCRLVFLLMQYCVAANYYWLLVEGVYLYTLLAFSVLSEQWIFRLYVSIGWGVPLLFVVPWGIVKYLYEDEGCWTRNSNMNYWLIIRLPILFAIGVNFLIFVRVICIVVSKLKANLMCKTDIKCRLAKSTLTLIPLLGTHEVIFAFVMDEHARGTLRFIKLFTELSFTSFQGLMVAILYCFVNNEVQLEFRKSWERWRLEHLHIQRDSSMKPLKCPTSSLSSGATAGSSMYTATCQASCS
Chain of hERG potassium channels (Q12809 whole entry): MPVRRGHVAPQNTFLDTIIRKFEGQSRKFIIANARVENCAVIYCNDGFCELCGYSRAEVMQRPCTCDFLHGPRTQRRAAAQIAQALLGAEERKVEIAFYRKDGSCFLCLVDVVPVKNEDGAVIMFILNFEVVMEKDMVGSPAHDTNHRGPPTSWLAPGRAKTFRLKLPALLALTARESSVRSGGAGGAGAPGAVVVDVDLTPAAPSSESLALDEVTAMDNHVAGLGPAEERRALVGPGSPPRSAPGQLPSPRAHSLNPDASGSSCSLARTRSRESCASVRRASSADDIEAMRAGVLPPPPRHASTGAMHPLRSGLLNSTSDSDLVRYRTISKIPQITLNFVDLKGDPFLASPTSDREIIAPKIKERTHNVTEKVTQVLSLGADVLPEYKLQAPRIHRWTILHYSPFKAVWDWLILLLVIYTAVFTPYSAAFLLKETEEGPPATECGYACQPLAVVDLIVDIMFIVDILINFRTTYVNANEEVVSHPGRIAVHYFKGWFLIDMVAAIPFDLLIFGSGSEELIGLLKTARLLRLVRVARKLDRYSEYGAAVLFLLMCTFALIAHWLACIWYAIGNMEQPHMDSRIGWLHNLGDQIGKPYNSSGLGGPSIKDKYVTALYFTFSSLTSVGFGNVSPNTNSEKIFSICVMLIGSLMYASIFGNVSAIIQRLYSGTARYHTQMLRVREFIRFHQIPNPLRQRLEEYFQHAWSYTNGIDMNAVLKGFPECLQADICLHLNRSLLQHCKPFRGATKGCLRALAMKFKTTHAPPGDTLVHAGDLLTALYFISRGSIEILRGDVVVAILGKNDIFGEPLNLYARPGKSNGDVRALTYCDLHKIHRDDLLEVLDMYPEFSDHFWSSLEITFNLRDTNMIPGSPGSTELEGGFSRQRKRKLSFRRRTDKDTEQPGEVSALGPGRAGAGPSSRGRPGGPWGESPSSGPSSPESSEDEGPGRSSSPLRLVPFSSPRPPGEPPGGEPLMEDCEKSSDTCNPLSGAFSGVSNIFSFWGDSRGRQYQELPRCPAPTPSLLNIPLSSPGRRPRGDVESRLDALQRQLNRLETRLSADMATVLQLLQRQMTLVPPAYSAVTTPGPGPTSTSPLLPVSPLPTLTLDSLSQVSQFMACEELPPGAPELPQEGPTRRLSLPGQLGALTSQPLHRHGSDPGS

Regarding `CCOc1cc(C(=O)O)cc2c1nc(CN1CCN(c3cccc4c3O[C@@](C)(c3ccc(C(F)(F)F)cc3F)O4)C=N1)n2C[C@@H]1CCO1` [Compound 81-1, 4-ethoxy-2-((4-((S)-2-(2-fluoro-4-(trifluoromethyl)phenyl)-2-methylbenzo[d][1,3]dioxol-4-yl)-5,6-dihydro-1,2,4-triazin-1(4H)-yl)methyl)-1-(((S)-oxetan-2-yl)methyl)-1H-benzo[d]imidazole-6-carboxylic acid], the EC50 on human GLP-1 receptor is 0.0018 nM. For the same molecule, the “inhibitory effect on eating compared with Tris salt of positive control PF-06882961 at the same dose” value in the experiment with hGLP-1R KI mice (at 5, 12 and 24 hours) is reported as “significantly better than”. In addition, in the experiment with hGLP-1R KI mice (setting [3]), the “duration of the food intake reducing effect” value was 24 h and the food intake result is “significantly reduce the food intake”.
Turning to `CCCOc1cc(C(=O)O)cc2c1nc(CN1CCC(c3cccc(OCc4ccc(C#N)cc4F)n3)CC1)n2C[C@@H]1CCO1` [Compound 3, (S)-2-((4-(6-((4-cyano-2-fluorobenzyl)oxy)pyridin-2-yl)piperidin-1-yl)methyl)-1-(oxetan-2-ylmethyl)-4-propoxy-1H-benzo[d]imidazole-6-carboxylic acid], the maximum response (Emax) in the experiment on β-arrestin 1 and in the experiment with β-arrestin 2 was 30 to 50% in each case. Besides, the EC50 on human GLP-1 receptor was 0.0064 nM.
In the case of `COc1cc(C#N)ccc1COc1cccc(C2CCN(Cc3nc4c(OC)cc(C(=O)O)cc4n3C[C@@H]3CCO3)CC2)n1` [Compound 4, (S)-2-((4-(6-((4-cyano-2-methoxybenzyl)oxy)pyridin-2-yl)piperidin-1-yl)methyl)-4-methoxy-1-(oxetan-2-ylmethyl)-1H-benzo[d]imidazole-6-carboxylic acid], the Emax in the experiment with β-arrestin 1 and in the experiment on β-arrestin 2 was 30 to 50% each time.
Regarding `[2H]C([2H])([2H])C([2H])([2H])Oc1cc(C(=O)O)cc2c1nc(CN1CCN(c3cccc4c3OC(C)(c3ccc(Cl)cc3F)O4)C=N1)n2C[C@@H]1CCO1` (stereo partly drawn) [Compound 76, 2-((4-(2-(4-chloro-2-fluorophenyl)-2-methylbenzo[d][1,3]dioxol-4-yl)-5,6-dihydro-1,2,4-triazin-1(4H)-yl)methyl)-4-(ethoxy-d5)-1-(((S)-oxetan-2-yl)methyl)-1H-benzo[d]imidazole-6-carboxylic acid], the EC50 at human GLP-1 receptor amounted to 0.0045 nM. Further, on hERG potassium channels, the IC50 was above 40000 nM.
In the case of `COc1cc(Cl)ccc1COc1cccc(N2C=NN(Cc3nc4c(OC)cc(C(=O)O)cc4n3C[C@@H]3CCO3)CC2)n1` [Compound 20, (S)-2-((4-(6-((4-chloro-2-methoxybenzyl)oxy)pyridin-2-yl)-5,6-dihydro-1,2,4-triazin-1(4H)-yl)methyl)-4-methoxy-1-(oxetan-2-ylmethyl)-1H-benzo[d]imidazole-6-carboxylic acid], the maximal effect (Emax) with β-arrestin 1 and in the experiment with β-arrestin 2 was 30 to 50% in each case. Besides, in experiment [1] (1 mg/kg oral, oral glucose tolerance test), the “effect compared with positive control PF-06882961 ammonium salt at the same dose” value is “better than the positive control PF-06882961 ammonium salt”. The “blood glucose area under the curve” value in experiment [1] (ammonium salt, orally administered at 1 mg/kg, AUC(0-90), vs blank control) was “significantly reduce”. Also, in experiment [1] (ammonium salt, orally administered at 1 mg/kg, vs blank control), the blood glucose concentration entry is reported as “significantly reduce”. Moreover, the IC50 on hERG potassium channels is above 40000 nM.
Regarding `N#Cc1ccc(COc2cccc(C3CCN(Cc4nc5ccc(C(=O)O)cc5n4C[C@@H]4CCO4)CC3)n2)c(F)c1` [PF-06882961, reference compound], the Emax in the experiment on β-arrestin 1 and in the experiment with β-arrestin 2 was 75 to 80% each time. Besides, the “weight gain of HFD-fed mice” value in experiment [2] (30 mg/kg by gavage once a day, 15 days) is listed as “effectively inhibit the weight gain”. The “reduce body weight compared with the blank control group” value in experiment [2] (30 mg/kg once a day, after 15 days of administration, HFD) was found to be 10.2%.
`CCOc1cc(C(=O)O)cc2c1nc(CN1CCN(c3cccc(OCc4ccc(C#N)cc4F)n3)C=N1)n2C[C@@H]1CCO1` [Compound 9, (S)-2-((4-(6-((4-cyano-2-fluorobenzyl)oxy)pyridin-2-yl)-5,6-dihydro-1,2,4-triazin-1(4H)-yl)methyl)-4-ethoxy-1-(oxetan-2-ylmethyl)-1H-benzo[d]imidazole-6-carboxylic acid]: on human GLP-1 receptor, the EC50 was 0.0012 nM. The same molecule returned an IC50 on hERG potassium channels above 40000 nM.
With `O=C(O)c1cc(F)c2nc(CN3CCN(c4cccc(OCc5ccc(Cl)cc5F)n4)C=N3)n(C[C@@H]3CCO3)c2c1` [CN2022114139828 , Compound 2, reference compound], the Emax in the experiment on β-arrestin 1 and in the experiment with β-arrestin 2 was 75 to 80% in each case.
As for `[2H]C([2H])([2H])C([2H])([2H])Oc1cc(C(=O)O)cc2c1nc(CN1CCN(c3cccc4c3OC(C)(c3ccc(C(F)(F)F)cc3F)O4)C=N1)n2C[C@@H]1CCO1` (stereo partly shown) [Compound 82], the EC50 at human GLP-1 receptor worked out at 0.0131 nM. The molecule also yielded an IC50 against hERG potassium channels above 40000 nM.
For the molecule `COc1cc(C(=O)O)cc2c1nc(CN1CCN(c3cccc4c3OC(C)(c3ccc(Cl)cc3F)O4)C=N1)n2C[C@@H]1CCO1` (stereo partly drawn) [Compound 63, 2-((4-(2-(4-chloro-2-fluorophenyl)-2-methylbenzo[d][1,3]dioxol-4-yl)-5,6-dihydro-1,2,4-triazin-1(4H)-yl)methyl)-4-methoxy-1-(((S)-oxetan-2-yl)methyl)-1H-benzo[d]imidazole-6-carboxylic acid], the EC50 at human GLP-1 receptor turned out to be 0.0152 nM. In addition, the IC50 against hERG potassium channels is above 40000 nM.
In the case of `[2H]C([2H])([2H])Oc1cc(C(=O)O)cc2c1nc(CN1CCC(c3cccc4c3OC(C)(c3ccc(C(F)(F)F)cn3)O4)CC1)n2C[C@@H]1CCO1` (stereo partly drawn) [Compound 67, 4-(methoxy-d3)-2-((4-(2-methyl-2-(5-(trifluoromethyl)pyridin-2-yl)benzo[d][1,3]dioxol-4-yl)piperidin-1-yl)methyl)-1-(((S)-oxetan-2-yl)methyl)-1H-benzo[d]imidazole-6-carboxylic acid], the EC50 at human GLP-1 receptor was 0.0141 nM. Moreover, the IC50 against hERG potassium channels was above 40000 nM.
